Measured values taken from the NIST ThermoML archive (doi:10.1021/acs.jced.8b01196).

Assays:
[1] = Liquid; for mass density: 101.33 kPa, Vibrating tube method; for vapor or sublimation pressure: Ebulliometric method (Recirculating still)
[2] = Boiling temperature at pressure P; conditions: Liquid, Ebulliometric method (Recirculating still)
[3] = refractive index (Na D-line) (dimensionless); conditions: 101.33 kPa, Liquid, Standard Abbe refractometry

CCC(=O)C(C)=O [2,3-pentanedione]
Conditions | Boiling temperature at pressure P [°C] | mass density [kg/m3] | refractive index | vapor or sublimation pressure [kPa]
[1], 292.15 K | – | 982 | – | –
[1], 382.52 K | – | – | – | 100
[1], 395.74 K | – | – | – | 150
[1], 405.62 K | – | – | – | 200
[2], 15.33 kPa | 58.52 | – | – | –
[2], 30.35 kPa | 74.90 | – | – | –
[2], 45.32 kPa | 85.6 | – | – | –
[2], 50.34 kPa | 88.2 | – | – | –
[2], 60.35 kPa | 93.66 | – | – | –
[2], 65.35 kPa | 96.10 | – | – | –
[2], 75.35 kPa | 100.40 | – | – | –
[2], 90.29 kPa | 106.11 | – | – | –
[2], 100.75 kPa | 109.37 | – | – | –
[2], 105.45 kPa | 111.8 | – | – | –
[2], 120.51 kPa | 115.89 | – | – | –
[2], 135.32 kPa | 118.22 | – | – | –
[2], 150.5 kPa | 122.59 | – | – | –
[2], 165.5 kPa | 125.8 | – | – | –
[2], 180.57 kPa | 128.56 | – | – | –
[2], 195.59 kPa | 129.97 | – | – | –
[2], 200.68 kPa | 132.47 | – | – | –
[3], 292.15 K | – | – | 1.412 | –

CC=O [ethanal]
Conditions | Boiling temperature at pressure P [°C] | refractive index | vapor or sublimation pressure [kPa]
[1], 293.52 K | – | – | 100
[1], 304.31 K | – | – | 150
[1], 312.98 K | – | – | 200
[2], 100.68 kPa | 20.37 | – | –
[2], 105.38 kPa | 21.58 | – | –
[2], 115.48 kPa | 23.93 | – | –
[2], 135.54 kPa | 28.19 | – | –
[2], 150.37 kPa | 31.16 | – | –
[2], 165.44 kPa | 33.89 | – | –
[2], 180.92 kPa | 36.44 | – | –
[2], 195.74 kPa | 39 | – | –
[2], 200.79 kPa | 39.83 | – | –
[2], 210.95 kPa | 41.10 | – | –
[2], 225.32 kPa | 43.23 | – | –
[2], 240.4 kPa | 45.2 | – | –
[3], 293.15 K | – | 1.337 | –

CC(C)=O [acetone]
Conditions | Boiling temperature at pressure P [°C] | mass density [kg/m3] | refractive index | vapor or sublimation pressure [kPa]
[1], 298.15 K | – | 785 | – | –
[1], 328.89 K | – | – | – | 100
[1], 341.5 K | – | – | – | 150
[1], 350.57 K | – | – | – | 200
[2], 40.32 kPa | 31.47 | – | – | –
[2], 50.34 kPa | 37.0 | – | – | –
[2], 60.36 kPa | 41.64 | – | – | –
[2], 70.3 kPa | 45.74 | – | – | –
[2], 80.32 kPa | 49.40 | – | – | –
[2], 90.34 kPa | 52.70 | – | – | –
[2], 100.38 kPa | 55.74 | – | – | –
[2], 120.34 kPa | 61.20 | – | – | –
[2], 140.53 kPa | 65.91 | – | – | –
[2], 150.68 kPa | 68.4 | – | – | –
[2], 160.33 kPa | 70.12 | – | – | –
[2], 180.53 kPa | 73.92 | – | – | –
[2], 200.55 kPa | 77.42 | – | – | –
[2], 220.29 kPa | 80.67 | – | – | –
[3], 293.15 K | – | – | 1.359 | –
